Laboratory results published in patent US20230263759A1, “PARENTERAL NUTRITION FORMULATION” (BAXTER INTERNATIONAL INC., priority 2020, published 2023).

Legend:
[1] = Stability of butyrate derivatives in PN compositions (sterilization, storage; GC-FID); type: physicochemical; settings: for free butyric acid released in the lipid chamber during sterilization: after compounding and sterilization of the bags
Protocol: The concentration of arginine butyrate can be varied relatively broadly over the disclosed range.
Compositions used are described in Table 4 and Table 5. After compounding of the respective butyrate derivatives into the respective chambers of the bags and following sterilization, free butyric acid was measured in the lipid chamber (for tributyrin and DPBG compositions) and the butyrate content in the amino acid chamber was determined. […] In case of the amino acid chamber, the recovery of butyrate after sterilization corresponds to what was introduced. Accordingly, no deterioration of the salt occurred during or after sterilization. In addition, the stability of the composition over time (12 months, 25° C., 40% RH) was confirmed. The free butyric acid can be quantified by GC-FID, after sample preparation by liquid-liquid extraction of the lipid emulsion or directly from amino acid solution. These methods are known in the art.

[2] = system: cytokines Il-1β, Il-6, TNF-α, Il-8, Il-10; test: Cytokine quantification in jejunal and ileal samples; type: in vivo, pig; settings: compared to standard PN (s-PN)
Protocol: Digestive Diseases and Sciences 2002; 47:2049-2055. Jejunal and ileal samples were homogenized in double-distilled water, and the Bradford protein assay (Biorad, Hercules, Calif., USA) was performed on homogenate and plasma samples. Protein (30 μg) from each sample was denatured by boiling, and proteins were separated by size using 12.5% sodium dodecyl sulfate polyacrylamide gel electrophoresis. Separated proteins were transferred to polyvinylidene difluoride membranes (Biorad) using a semidry transfer apparatus (Biorad). Western blot analysis for TNF-alpha, IL-1beta, Il-10 and IL-6 was performed using porcine-specific polyclonal antibodies (Endogen, Woburn, Mass., USA). A mouse anti-pig monoclonal TNF-alpha antibody was used to detect TNF-alpha ([…]) Rabbit anti-pig polyclonal antibodies specific for IL-1beta and IL-6 were used to detect IL-1beta ([…]), Il-10 ([…]) and IL-6 ([…]). Membranes were developed using the Opti-4CN kit (Biorad) and photographed using the FOTO/Analyst Image Analysis System (Fotodyne, Inc., Hart-land, Wisconsin, USA). Densitometry of TNF-alpha, IL-1beta, IL-6, and Il-10 was performed using Collage Image Analysis Software 4.0 (Fotodyne, Inc.). Results are shown in FIG. 15 (Il-6), FIG. 16 (Ill-beta), FIG. 17 (TNF-alpha) and FIG. 18 (Il-10).

sIgA = test: IgA quantification (sandwich ELISA of intestinal washings); type: in vivo, pig; settings: 10 mmol/L; compared to standard PN (s-PN)
Protocol: Small intestine probes for IgA level determination were obtained by flushing the small intestine with chilled HBSS (Hank's Balanced Salt Solution). Nasal and bronchoalveolar washings for measurement of respiratory tract IgA levels were obtained by lavage with 1 mL phosphate-buffered saline solution under anesthesia. The washings were stored in a −80° C. freezer until IgA analysis. IgA was measured in small intestinal and respiratory tract washings by sandwich enzyme-linked immunosorbent assay using a polyclonal goat anti-mouse IgA (Sigma) to coat the plate, a purified mouse IgA (Zymed Laboratories, San Francisco, Calif.) as the standard, and a horseradish peroxidase-conjugated goat anti-mouse IgA (Sigma) Results are shown in FIG. 13.

[3] = system: metastatic colorectal cancer patients; settings: aqueous solution, pH 7.7; phase I clinical trial; cited from earlier work

| Compound | free butyric acid released in the lipid chamber during sterilization [1] | shelf-life over which stable in the amino acid formulation ([1]; 25° C. and 40% relative humidity (RH), also stable during production, sterilization) | Ileal Cytokine Concentration (less pro-inflammatory cytokines Il-1β, Il-6, TNF-α) ([2]; 10 mmol/L) | Ileal Cytokine Concentration (more anti-inflammatory cytokines Il-8, Il-10) ([2]; 10 mmol/L) | Jejunal Cytokine Concentration (less pro-inflammatory cytokines Il-1β, Il-6, TNF-α) ([2]; 10 mmol/L) | Jejunal Cytokine Concentration (more anti-inflammatory cytokines Il-8, Il-10) ([2]; 10 mmol/L) | Jejunal sIgA Concentration (sIgA) | tolerated dose [3] [g/kg/day] | Ileal Cytokine Concentration (less pro-inflammatory cytokines Il-1β, Il-6, TNF-α) ([2]; 30 mmol/L) | Jejunal Cytokine Concentration (less pro-inflammatory cytokines Il-1β, Il-6, TNF-α) ([2]; 30 mmol/L) | Jejunal Cytokine Concentration (more anti-inflammatory cytokines Il-8, Il-10) ([2]; 30 mmol/L) |
| --- | --- | --- | --- | --- | --- | --- | --- | --- | --- | --- | --- |
| CCCCCCCCCCCCCCCC(=O)OCC(COC(=O)CCC)OC(=O)CCCCCCCCCCCCCCC (stereo not drawn) [DPBG, 1,2-Dipalmitoyl 3-butyryl glycerol] | only very limited amounts |  |  |  |  |  |  |  |  |  |  |
| L-arginine, butanoate (3:4) [Arginine Butyrate] |  | at least 12 months | +++ (+++ indicate P < 0.01) | +^4 | +++ (+++ indicate P < 0.01) | ++ (++ indicates P < 0.05) | +++^3 (+++ indicate P < 0.01) | 3 |  |  |  |
| CCCC(=O)OCC(COC(=O)CCC)OC(=O)CCC [Tributyrin] | only very limited amounts |  | ++ (++ indicates P < 0.05) | + | +++ (+++ indicate P < 0.01) |  |  |  | ++ (++ indicates P < 0.05) | +++ (+++ indicate P < 0.01) | + |
